Data reported in patent publication US4387238A, “Epoxysuccinamic acid compounds” (Taisho Pharmaceutical Co., Ltd., priority 1978, dated 1983).
Like-named read-outs stand apart in the source and are kept apart here.

Experiments:
[1] = tested on: adjuvant-induced polyarthritis; assay: Effect on the development of adjuvant-induced polyarthritis in rat (hind paw volume); assay type: in vivo, Sprague Dawley rat; details: 30 mg/kg of body weight, daily oral, 8 rats/group
Description: The compounds of the present invention show excellent anti-inflammatory activity as measured by their ability to inhibit adjuvant induced polyarthritis as compared with the known epoxysuccinates. That is, they show potent and continuous effectiveness on oral administration of smaller components than the known epoxysuccinic acid compounds. Effect of the compounds of the present invention on the development of adjuvant-induced polyarthritis in rat was assayed as follows: Adjuvant arthritis is produced by a single intracutaneous injection of 0.1 ml of the adjuvant mixture containing heat-killed mycobacteria of the human Aoyama B strain suspended in liquid paraffin in 0.6% in the middle part of the distal tail of Sprague Dawley rat (female, 8 weeks old). The compounds suspended in 0.5% carboxymethylcellulose solution protect the animal against the development of lession of adjuvant arthritis in daily oral administration beginning on the day of adjuvant injection and continuing for 24 days thereafter. The activity is measured as the mean inhibition percent for the increase of the hind paw volume of the 8 rats/group on the days 17 and 23 on which the legs become inflamed and reach maximum volumes. The compound Nos. in Table 1 are as defined in Examples as described hereinafter.

[2] = molecular target: T1, papain (Carica papaya, UniProt P00784); assay: Papain inhibitory activity (milk casein proteolysis); assay type: biochemical; parameters: unit not given beside the values; details: amount of inhibitor for 50% inhibition; pH 6.8, 40° C., casein substrate
T1 construct: purchased Sigma Chem. Co
T1 sequence (P00784 134-345): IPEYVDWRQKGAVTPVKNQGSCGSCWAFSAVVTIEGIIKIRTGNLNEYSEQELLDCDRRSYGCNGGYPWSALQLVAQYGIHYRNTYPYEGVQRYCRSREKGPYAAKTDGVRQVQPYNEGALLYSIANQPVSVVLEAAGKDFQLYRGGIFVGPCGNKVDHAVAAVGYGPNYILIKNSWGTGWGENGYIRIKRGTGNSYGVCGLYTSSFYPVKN
Description: Papain inhibitory activity of the compounds of the present invention was assayed as follows: To 0.5 ml of a solution of papain (80 μg/ml, Sigma Chem. Co., 2x, cry.), were added 0.25 ml of 40 mM cysteine dissolved in 20 mM disodium ethylenediamine tetraacetic acid solution adjusted pH to 6.8 with sodium hydroxide and 0.25 ml of 33 mM phosphate buffer (pH 6.8) with or without inhibitor. After incubation for 15 minutes at 40° C., the resulting mixture was added to 5 ml of 1% milk casein solution in the same buffer as described above, and further incubated for 10 minutes at 40° C. Then the mixture was mixed with 5 ml of 0.44 M trichloroacetic acid solution and followed by filtration with a sheet of Toyo filter paper No. 4.
The extinction of the filtrate was read at 280 nm. The percent inhibition was calculated from the formula, 100×(B-A)/B; wherein B stands for the absorbance without inhibitor and A for the absorbance with inhibitor. The compound Nos. in Table 2 are as defined in Examples as described hereinafter.

[3] = 408 h, day 17, mean inhibition for increase of hind paw volume, read-out: Inhibition(%) 17 days
[4] = 552 h, day 23, mean inhibition for increase of hind paw volume, read-out: Inhibition(%) 23 days

| SMILES | inhibition in vivo at 30 mg/kg [1, 3] [%] | inhibition in vivo at 30 mg/kg [1, 4] [%] | ID50 [2] |
| --- | --- | --- | --- |
| O=C(NCc1ccccc1)[C@H]1O[C@@H]1C(=O)Oc1ccccc1 (relative stereo) [Compound No. 48, Phenyl N-benzyl-2,3-epoxysuccinamate] | 45 | 40 | 3.83 γ |
| CCOC(=O)[C@@H]1O[C@H]1C(=O)N(C)C1CCCCC1 (relative stereo) [Compound No. 31, ethyl N-methyl-N-cyclohexyl-2,3-epoxysuccinamate] | 45 | 38 | 53.19 γ |
| O=C(NC1CCCCC1)[C@@H]1O[C@H]1C(=O)OC1CCCC1 (relative stereo) [Compound No. 25, cyclopentyl N-cyclohexyl-2,3-epoxysuccinamate] | 76 | 58 | 3.68 γ |
| CCOC(=O)[C@@H]1O[C@H]1C(=O)N1CCC(C)CC1 (relative stereo) [Compound No. 76, ethyl N-3'-methylpentamethylene-2,3-epoxysuccinamate] | 48 | 42 | 79.53 γ |
| CCOC(=O)[C@@H]1O[C@H]1C(=O)Nc1ccc([N+](=O)[O-])cc1 (relative stereo) [Compound No. 5, ethyl N-4'-nitrophenyl-2,3-epoxysuccinamate] | 65 | 48 | 22.32 γ |
| CCNC(=O)[C@H]1O[C@@H]1C(=O)OC1CCCCC1 (relative stereo) [Compound No. 66, Cyclohexyl N-ethyl-2,3-epoxysuccinamate] | 75 | 62 | 11.05 γ |
| CC(C)COC(=O)[C@H]1O[C@@H]1C(=O)Nc1ccccc1 (relative stereo) [Compound No. 40, Isobutyl N-phenyl-2,3-epoxysuccinamate] | 40 | 35 | 13.20 γ |
| O=C(OCCCC1CCCC1)[C@@H]1O[C@H]1C(=O)N1CCCC1 (relative stereo) [Compound No. 79, 3'-Cyclopentanepropyl N-tetramethylene-2,3-epoxysuccinamate] | – | – | 36.25 γ |
| CC(C)CCOC(=O)[C@@H]1O[C@H]1C(=O)N(C)C (relative stereo) [Compound No. 90, Isoamyl N,N-dimethyl-2,3-epoxysuccinamate] | – | – | 50.25 γ |
| CCCCOC(=O)C1CCCN1C(=O)C1OC1C(=O)OCC (stereo not shown) [Compound No. 88, ethyl N-1'-carbobutoxytetramethylene-2,3-epoxysuccinamate] | – | – | 118.41 γ |
| O=C(Nc1ccccc1)[C@H]1O[C@@H]1C(=O)OCC1CC=CCC1 (relative stereo) [Compound No. 53, 3'-cyclohexenemethyl N-phenyl-2,3-epoxysuccinamate] | – | – | 1.63 γ |
| CCOC(=O)[C@@H]1O[C@H]1C(=O)N1CCOCC1 (relative stereo) [Compound No. 21] | – | – | 93.28 γ |
| CCOC(=O)[C@H]1O[C@@H]1C(=O)NCCCCCNC(=O)OCc1ccccc1 (relative stereo) [Compound No. 69, ethyl N-carbobenzoxyaminopentyl-2,3-epoxysuccinamate] | – | – | 12.05 γ |
| O=C(O)[C@@H]1O[C@H]1C(=O)NC1CCCCC1 (relative stereo) [Compound No. 100, sodium N-cyclohexyl-2,3-epoxysuccinamate] | – | – | 0.231 γ |
| C=CCOC(=O)[C@H]1O[C@@H]1C(=O)NCC1CCCC1 (relative stereo) [compound 38, Allyl N-cyclopentanemethyl-2,3-epoxysuccinamate] | – | – | 4.26 γ |
| CCOC(=O)[C@@H]1O[C@H]1C(=O)Nc1cccc2cccnc12 (relative stereo) [Compound No. 12, ethyl N-8'-quinolinyl-2,3-epoxysuccinamate] | – | – | 20.16 γ |
| CCOC(=O)[C@@H]1O[C@H]1C(=O)Nc1ccc(Br)cc1 (relative stereo) [Compound No. 6, ethyl N-4'-bromophenyl-2,3-epoxysuccinamate] | – | – | 25.51 γ |
